The source of these data is paper doi:10.1101/2024.05.17.594634, “Protein Structure Inspired Drug Discovery” (bioRxiv, 2024).

One assay has as its system HT116 colon cancer cells. The experiment in a line: Eight-day colony formation assay, HT116. The format is cell-based, human. As for the experimental part:
(§1) We sought to identify compounds that would inhibit the growth of cancer cells, but that also did so selectively. Inhibition of cancer cell growth is a highly sought after attribute of anticancer agents. This was assessed by measuring the ability of a compound to inhibit cell growth in eight-day colony formation assays, examining concentrations ranging from 0.017 to 40 μM. Breast, colon, lung and prostate cancer are four of the most common causes of cancer in the United States, are major causes of cancer cell death, and were examined.[64] Two cell lines for each cancer type were assessed: A549 (adenocarcinoma) and H226 (squamous carcinoma) for lung, MCF-7 (estrogen receptor [ER] positive) and MDA-MB-231 (ER negative) for breast, LNCaP (androgen receptor [AR] positive) and PC3-M (AR negative) for prostate, and HCT116 (wild type p53, mutated KRAS) and HT29 (p53 mutant) for colon.[65]
(§2) In considering effect on cancer cells, for each compound and each cell line tested we calculated the efficacy ratio, i.e., efficacy ratio = (percent of remaining cancer cell colonies)/(percent of remaining bone marrow colonies), at 8 days after treatment with 40 μM compound (S4 Fig). We considered those with an efficacy ratio below 0.5 as active and at least partially selective. The stringency of this is highlighted by considering the effect of 5FU on colon cancer, where it is frequently used clinically in proven curative settings, as well as proven life prolonging settings.[70, 71] […] Even at 5.7 μM, where 5FU is toxic to bone marrow, with hematopoietic colony formation at 38% of control, the efficacy ratio for HT29 cells has only dropped to 0.52. […] It can be seen that compounds segregate to protein sites. Specifically, of 10 compounds meeting this activity criteria (i.e., efficacy ratio <0.5), 3 were directed at the Dxr2 site, 3 at FolC2, 2 at FolC1, 1 at Dxr1 and 1 at TYLT.
(§3) Eight-day colony formation assays of cancer cells were performed as described by us.[87] Briefly, 0.5–1.0 × 10^3 cells were seeded into a 12 well plate, after 24 hours compound added and eight days later colonies (of 3 or more cells) were scored after trypan blue staining. Conditions were in replicates of N = 2. All compounds were stored under desiccated conditions in a sealed container at minus 20°C upon arrival. One day prior to use, they were placed into DMSO, stored at […] as stock solutions, thawed just prior to use, and not reused.

A further assay concerns HT29 colon cancer cells. In words: Eight-day colony formation assay, HT29. The format is cell-based, human. The procedure: as §1, §2, §3
Assay [1] deals with MCF-7 breast cancer cells. The experiment in a line: Eight-day colony formation assay, MCF-7. The format is cell-based, human. The procedure:
as §1, §2, §3

Assay [2] concerns MDA-MB-231 breast cancer cells. In words: Eight-day colony formation assay, MDA-MB-231. The format is cell-based, human. The note with it: for efficacy ratio (cancer cell colonies to bone marrow colonies at 8 days): MDAMB231. The procedure:
as §1, §2, §3

In a further assay the test system is A549 lung cancer cells. The experiment in a line: Eight-day colony formation assay, A549. The format is cell-based, human. As for the experimental part: as §1, §2, §3
The subject of assay [3] is PC3-M prostate cancer cells. The experiment in a line: Eight-day colony formation assay, PC3-M. The format is cell-based, human. The procedure:
as §1, §2, §3

Assay [4] deals with LNCaP prostate cancer cells. In words: Eight-day colony formation assay, LNCaP. The format is cell-based, human. The procedure:
as §1, §2, §3

Assay [5] relates to human breast, prostate, colon and lung cancer cells. The experiment in a line: Eight-day colony formation assays, summary across the cancer cell line panel. The format is cell-based. The procedure: as §1, §2, §3
In assay [6] the test system is HT29, MDA-MB-231 and H226. In words: NCI-60 cell line screen, other cell lines. The format is cell-based, human. The conditions noted are these: 10 μM X 48 hours. The procedure: Above findings support the importance of Dxr2 and FolC2 sites, and of Dxr2-017 and FolC2-001 compounds, respectively. The predicted poses of Dxr2-017 bound to the Dxr2 site and FolC2-001 bound to the FolC2 site are shown (Fig 7). The NCI-60 cell line screen evaluates compound growth inhibition and cell toxicity in a highly standardized manner across 60 different cell lines. Dxr2-017 and FolC2-001 were evaluated in this assay (S5 Fig). NCI-60 screens evaluate compounds at 10 μM X 48 hours. […] Of high interest, in the NCI-60 screen Dxr2-017 had relatively high activity against melanoma cell lines, inducing cell death in 5 cell lines ranging from 25–65%, and inhibiting growth in 4 cell lines ranging from 76–96%. Its impact on cell death represents the most striking relative difference in response across cell lines.

The test system of a further assay is SK-MEL-5 cells. The experiment in a line: Cell cycle analysis by flow cytometry, SK-MEL-5. The format is cell-based, human. The note with it: 50 nM, eight days. As for the experimental part: Fig 8. Dxr2-017 inhibits melanoma cell growth through induction of anoikis. (A) Inhibition of melanoma cell growth. Cells were treated with different concentrations of Dxr2-017 and formation of colonies at eight days depicted. Data are expressed as percent of untreated control and are the mean ± SEM (N=3 replicates) of a single experiment. (B) No effect on cycle progression. M14 and SK-MEL-5 cells were treated for 8 days with 20 and 50 nM Dxr2-017, respectively, and phase of cell cycle determined by flow cytometry. Data are the mean ± SEM (N=3). *denotes P-value ≤0.05. (C) Transition to floating cells. Cells were treated for three days with different Dxr2-017 concentrations. Depicted are representative light photomicrographs at 20X; scale bar is150 μm. Blue and green arrows denote adherent and floating cells, respectively. (D) Cleaved caspase 3 is induced in floating cells. Cells were treated for 3 days, cell lysate from only adherent cells, or from adherent and floating cells combined, was probed by Western blot for cleaved caspase 3. All experiments were repeated at separate times, yielding similar results.
A total of 1 × 10^4 M14 cells and 1 × 10^4 SK-MEL-5 cells were seeded into 10 cm culture dishes. […] Cells were analyzed by flow cytometry (FACSCalibur3 analyzer, BD Biosciences), and the percentage of cells within G0/G1, S, and G2/M phases were determined via analysis using Modfit LT 4.0.5.
A general note: In flow cytometry, cells or beads pass a laser one at a time.

The structures appear in SMILES notation.

On to `c1ccc2sc(-c3ccc(CNc4ccc5nnnn5n4)o3)nc2c1` [Dxr2-017], for which the “efficacy ratio (cancer cell colonies to bone marrow colonies at 8 days)” value came to 0.69 in the assay on HT116 colon cancer cells (5.7 μM); 0.08 in the assay with HT116 colon cancer cells (40 μM); 0.03 in the assay on HT29 colon cancer cells (5.7 μM); 0.00 in the assay with HT29 colon cancer cells (40 μM); 0.39 in assay [1] (5.7 μM); 0.02 in [1] (40 μM). The “efficacy ratio (cancer cell colonies to bone marrow colonies at 8 days)” value was determined as 0.05 in assay [2] (5.7 μM); 0.00 in assay [2] (40 μM); 1.26 with A549 lung cancer cells (5.7 μM); 0.07 with A549 lung cancer cells (40 μM); 0.41 in [3] (5.7 μM); 0.00 in [3] (40 μM). The “efficacy ratio (cancer cell colonies to bone marrow colonies at 8 days)” value in assay [4] (5.7 μM) came out at 0.49; in [4] (40 μM), 0.05. In addition, the inhibition at 0.12 µM with HT29 colon cancer cells (Homo sapiens, HT-29, 0.12 μM, mean ± SD, read-out: inhibition of colony formation compared to control) was determined as 91.1 ± 4.8%; in assay [2] (Homo sapiens, 0.12 μM, MDA-MB-231, mean ± SD, read-out: inhibition of colony formation compared to control) it was 81.7 ± 15.5%. Further, the figures for the “relative activity for a given compound, % (% of cells tested where ratio is <0.5)” value in assay [5] (5.7 μM) and in assay [5] (40 μM) were 75% and 100%, respectively. Further, the “mean efficacy ratio for cells where the efficacy ratio is below 0.5” value in [5] (5.7 μM, mean ± SEM) is 0.25 ± 0.091. Moreover, in assay [5] (40 μM, mean ± SEM), the “mean efficacy ratio for cells/compounds where the efficacy ratio is below 0.5” value came to 0.03 ± 0.01. For the same compound, the “activity in NCI-60 screen” value in assay [6] was “activity against HT29, MDA-MB-231 and H226”. Also, in the assay with SK-MEL-5 cells, the “change in cell cycle parameters” value was “little-to-no change in cell cycle parameters”.

Usually inhibition stands for the share of the control response that was lost under treatment.
